This data set relates to rodent lifetime carcinogenesis bioassay, tumor incidence TD50. In words: chronic cancer bioassays in animals – CPDB, compiled studies (AID 1745844).

Experimental findings from PubChem BioAssay AID1745844 (Carcinogenic Potency Database (CPDB), 2022) are described below.

Activity calls are given as the source filed them. How the calls were made is not given here.

Take `NC1CCCCC1`: the carcinogen call is, setting by setting: (mouse, strain ASH-CS1, females, in feed, site: any site (literature study), lesion: several types, types named in the paper, dosed 80 weeks, study length 84 weeks) “negative (inactive)”; (mouse, strain ASH-CS1, females, in feed, site: liver, lesion: nodular hyperplasia, dosed 80 weeks, study length 84 weeks) “negative (inactive)”; (mouse, strain ASH-CS1, females, in feed, site: lung, lesion: adenoma, dosed 80 weeks, study length 84 weeks) “negative (inactive)”; (mouse, strain ASH-CS1, males, in feed, site: any site (literature study), lesion: several types, types named in the paper, dosed 80 weeks, study length 84 weeks) “negative (inactive)”; (mouse, strain ASH-CS1, males, in feed, site: lung, lesion: adenocarcinoma, dosed 80 weeks, study length 84 weeks) “negative (inactive)”; (mouse, strain ASH-CS1, males, in feed, site: lung, lesion: adenoma, dosed 80 weeks, study length 84 weeks) “negative (inactive)”. Besides, the carcinogen call reads like this: (mouse, strain Swiss, females, in feed, site: urinary bladder, lesion: anaplastic carcinoma, dosed 91 weeks, study length 91 weeks) “negative (inactive)”; (mouse, strain Swiss, males, in feed, site: urinary bladder, lesion: one or several types, types not named, dosed 91 weeks, study length 91 weeks) “negative (inactive)”; (rat, strain FDRL, both sexes, in feed, site: any site (literature study), lesion: several types, types named in the paper, dosed 104 weeks, study length 104 weeks) “negative (inactive)”; (rat, strain Sprague-Dawley, both sexes, in feed, site: any site (literature study), lesion: malignant tumor, dosed 130 weeks, study length 130 weeks) “negative (inactive)”; (rat, strain Sprague-Dawley, both sexes, in feed, site: urinary bladder, lesion: one or several types, types not named, dosed 130 weeks, study length 130 weeks) “negative (inactive)”; (rat, strain Wistar, males, in feed, site: liver, lesion: hemangioma, dosed 104 weeks, study length 104 weeks) “negative (inactive)”. Also, the TD50 (mouse, strain ASH-CS1, males, in feed, site: liver, lesion: nodular hyperplasia, dosed 80 weeks, study length 84 weeks) is 231 mg/kg/day (inactive); the TD50 (rat, strain Charles River albino, males, in feed, site: urinary bladder, lesion: transitional-cell carcinoma, dosed 104 weeks, study length 104 weeks) was found to be 280 mg/kg/day; the TD50 (rat, strain Sprague-Dawley, both sexes, in feed, site: liver, lesion: liver-cell adenoma, dosed 130 weeks, study length 130 weeks) is 14500 mg/kg/day (inactive); the TD50 (rat, strain Wistar, females, in feed, site: liver, lesion: hemangioma, dosed 104 weeks, study length 104 weeks) was 1330 mg/kg/day (inactive); the TD50 (rat, strain Wistar, males, in feed, site: liver, lesion: nodular hyperplasia, dosed 104 weeks, study length 104 weeks) was 47000 mg/kg/day (inactive).
For `C[C@H]1CCCCN1N=O`, the TD50 is 13.2 mg/kg/day (rat, strain Sprague-Dawley, both sexes, in drinking water, site: any site (literature study), lesion: malignant tumor, dosed 104 weeks, study length 104 weeks); 61.2 mg/kg/day (rat, strain Sprague-Dawley, both sexes, in drinking water, site: liver, lesion: liver-cell carcinoma, dosed 104 weeks, study length 104 weeks); 49.4 mg/kg/day (rat, strain Sprague-Dawley, both sexes, in drinking water, site: liver, lesion: several types, types named in the paper, dosed 104 weeks, study length 104 weeks); 34.5 mg/kg/day (rat, strain Sprague-Dawley, both sexes, in drinking water, site: several sites, sites named in the paper, lesion: ependymoblastoma, dosed 104 weeks, study length 104 weeks).
Take `C=CCOC(=O)CC(C)C`: the TD50 reads like this: (mouse, strain B6C3F1, females, by gavage, site: all sites, lesion: malignant lymphoma, histiocytic type + malignant lymphoma, mixed type + malignant lymphoma, lymphocytic type, dosed 103 weeks, study length 106 weeks) 62.8 mg/kg/day; (mouse, strain B6C3F1, females, by gavage, site: all sites, lesion: malignant lymphoma, histiocytic type, dosed 103 weeks, study length 106 weeks) 238 mg/kg/day; (mouse, strain B6C3F1, females, by gavage, site: all sites, lesion: malignant lymphoma, mixed type, dosed 103 weeks, study length 106 weeks) 102 mg/kg/day; (mouse, strain B6C3F1, females, by gavage, site: any site (literature study), lesion: several types, types named in the paper, dosed 103 weeks, study length 106 weeks) 65.5 mg/kg/day; (mouse, strain B6C3F1, females, by gavage, site: lung, lesion: alveolar/bronchiolar adenoma + alveolar/bronchiolar carcinoma, dosed 103 weeks, study length 106 weeks) 4450 mg/kg/day; (mouse, strain B6C3F1, males, by gavage, site: any site (literature study), lesion: several types, types named in the paper, dosed 103 weeks, study length 106 weeks) 206 mg/kg/day. The TD50 by setting is: (mouse, strain B6C3F1, males, by gavage, site: gastric mucosa, lesion: squamous-cell papilloma, dosed 103 weeks, study length 106 weeks) 295 mg/kg/day (inactive); (rat, strain Fischer 344, females, by gavage, site: any site (literature study), lesion: several types, types named in the paper, dosed 103 weeks, study length 106 weeks) 43.5 mg/kg/day (inactive); (rat, strain Fischer 344, males, by gavage, site: all sites, lesion: monocytic leukemia + malignant lymphoma, histiocytic type, dosed 103 weeks, study length 106 weeks) 123 mg/kg/day; (rat, strain Fischer 344, males, by gavage, site: all sites, lesion: monocytic leukemia, dosed 103 weeks, study length 106 weeks) 149 mg/kg/day; (rat, strain Fischer 344, males, by gavage, site: any site (literature study), lesion: several types, types named in the paper, dosed 103 weeks, study length 106 weeks) 50.5 mg/kg/day; (rat, strain Fischer 344, males, by gavage, site: liver, lesion: hepatocellular adenoma + hepatocellular carcinoma + neoplastic nodule, dosed 103 weeks, study length 106 weeks) 264 mg/kg/day. Also, the TD50 (rat, strain Fischer 344, males, by gavage, site: preputial gland, lesion: adenoma, NOS + carcinoma, NOS + squamous-cell carcinoma, dosed 103 weeks, study length 106 weeks) was determined as 136 mg/kg/day.
On to `CCCC1O[C@@H]2C[C@H]3[C@@H]4CCC5=CC(=O)C=C[C@]5(C)[C@H]4[C@@H](O)C[C@]3(C)[C@]2(C(=O)CO)O1` (stereo partly drawn), for which the TD50 reads like this: (rat, strain Charles River CD (Sprague-Dawley), males, in drinking water, site: liver, lesion: hepatocellular adenoma, dosed 104 weeks, study length 104 weeks) 0.491 mg/kg/day; (rat, strain Charles River CD (Sprague-Dawley), males, in drinking water, site: liver, lesion: hepatocellular carcinoma, dosed 104 weeks, study length 104 weeks) 0.822 mg/kg/day; (rat, strain Charles River CD (Sprague-Dawley), males, in drinking water, site: liver, lesion: several types, types named in the paper, dosed 104 weeks, study length 104 weeks) 0.291 mg/kg/day.
Take `C=CCN(N)CC=C`: the TD50 by setting is: (mouse, strain Swiss albino, females, in drinking water, site: forestomach, lesion: squamous-cell papilloma, dosed 100 weeks, study length 100 weeks) 332 mg/kg/day; (mouse, strain Swiss albino, females, in drinking water, site: lung, lesion: adenocarcinoma, dosed 100 weeks, study length 100 weeks) 112 mg/kg/day; (mouse, strain Swiss albino, females, in drinking water, site: lung, lesion: adenoma, dosed 100 weeks, study length 100 weeks) 37.8 mg/kg/day; (mouse, strain Swiss albino, females, in drinking water, site: lung, lesion: several types, types named in the paper, dosed 100 weeks, study length 100 weeks) 34.9 mg/kg/day; (mouse, strain Swiss albino, males, in drinking water, site: forestomach, lesion: squamous-cell papilloma, dosed 93 weeks, study length 93 weeks) 48.1 mg/kg/day; (mouse, strain Swiss albino, males, in drinking water, site: liver, lesion: angiosarcoma, dosed 93 weeks, study length 93 weeks) 723 mg/kg/day (inactive). For the same molecule, the TD50 by setting is: (mouse, strain Swiss albino, males, in drinking water, site: lung, lesion: adenocarcinoma, dosed 93 weeks, study length 93 weeks) 38.9 mg/kg/day; (mouse, strain Swiss albino, males, in drinking water, site: lung, lesion: adenoma, dosed 93 weeks, study length 93 weeks) 29.8 mg/kg/day; (mouse, strain Swiss albino, males, in drinking water, site: lung, lesion: several types, types named in the paper, dosed 93 weeks, study length 93 weeks) 25.7 mg/kg/day. The carcinogen call (mouse, strain Swiss albino, females, in drinking water, site: liver, lesion: angioma, dosed 100 weeks, study length 100 weeks) was “negative (inactive)”; the carcinogen call (mouse, strain Swiss albino, females, in drinking water, site: liver, lesion: angiosarcoma, dosed 100 weeks, study length 100 weeks) was “negative (inactive)”; the carcinogen call (mouse, strain Swiss albino, males, in drinking water, site: liver, lesion: angioma, dosed 93 weeks, study length 93 weeks) is “negative (inactive)”.
With `Cc1ccc([N+](=O)[O-])cc1N`, the TD50 is, setting by setting: (mouse, strain B6C3F1, females, in feed, site: all sites + liver, lesion: hemangiosarcoma + hepatocellular carcinoma, dosed 78 weeks, study length 96 weeks) 242 mg/kg/day; (mouse, strain B6C3F1, females, in feed, site: all sites, lesion: hemangiosarcoma, dosed 78 weeks, study length 96 weeks) 1860 mg/kg/day; (mouse, strain B6C3F1, females, in feed, site: any site (literature study), lesion: several types, types named in the paper, dosed 78 weeks, study length 96 weeks) 989 mg/kg/day; (mouse, strain B6C3F1, females, in feed, site: liver, lesion: hepatocellular adenoma + hepatocellular carcinoma + neoplastic nodule, dosed 78 weeks, study length 96 weeks) 288 mg/kg/day; (mouse, strain B6C3F1, females, in feed, site: liver, lesion: hepatocellular carcinoma, dosed 78 weeks, study length 96 weeks) 288 mg/kg/day; (mouse, strain B6C3F1, males, in feed, site: all sites + liver, lesion: hemangioma + hemangiosarcoma + hepatocellular carcinoma, dosed 78 weeks, study length 95 weeks) 269 mg/kg/day. The TD50 is 2550 mg/kg/day (mouse, strain B6C3F1, males, in feed, site: all sites, lesion: hemangioma + hemangiosarcoma, dosed 78 weeks, study length 95 weeks); 431 mg/kg/day (mouse, strain B6C3F1, males, in feed, site: any site (literature study), lesion: several types, types named in the paper, dosed 78 weeks, study length 95 weeks); 266 mg/kg/day (mouse, strain B6C3F1, males, in feed, site: liver, lesion: hepatocellular adenoma + hepatocellular carcinoma + neoplastic nodule, dosed 78 weeks, study length 95 weeks); 266 mg/kg/day (mouse, strain B6C3F1, males, in feed, site: liver, lesion: hepatocellular carcinoma, dosed 78 weeks, study length 95 weeks); 43 mg/kg/day (rat, strain Fischer 344, females, in feed, site: liver, lesion: hepatocellular adenoma + hepatocellular carcinoma + neoplastic nodule, dosed 78 weeks, study length 108 weeks); 43.7 mg/kg/day (rat, strain Fischer 344, males, in feed, site: any site (literature study), lesion: several types, types named in the paper, dosed 78 weeks, study length 107 weeks). The TD50 (rat, strain Fischer 344, males, in feed, site: liver, lesion: hepatocellular carcinoma, dosed 78 weeks, study length 107 weeks) is 27.7 mg/kg/day (inactive). For the same molecule, the carcinogen call (rat, strain Fischer 344, females, in feed, site: any site (literature study), lesion: several types, types named in the paper, dosed 78 weeks, study length 108 weeks) is “negative (inactive)”.
